Test results from patent US7405317B2, “Phosphate-bearing prodrugs of sulfonyl hydrazines as hypoxia-selective antineoplastic agents” (priority 2004, dated 2008).

Key:
[1] = system: CHO-450red (human cytochrome P-450 reductase transfected CHO cells); test: Aerobic/hypoxic cell survival, cytochrome P-450 reductase transfected CHO cells; format: cell-based; details: drug 10 μM
Procedure: (§1) EMT6 or CHO (parental or human cytochrome P-450 reductase transfected) cells, seeded in glass milk dilution bottles, were gassed for 2 hours through a rubber septum fitted with 13 gauge (inflow) and 18 gauge (outflow) needles with a mixture of 5% CO2, oxygen at various concentrations, with the balance of the mixture made up of nitrogen, to establish various hypoxic conditions. Drugs were then injected without disrupting hypoxia. After two hours, cells were collected and plated in a clonogenic assay to determine the surviving fraction, compared to untreated controls.
(§2) For in vitro analysis, KS119W must be converted to KS119OH (1) in an AP-catalyzed reaction shown above in FIG. 2, as the phosphorylated parent drug cannot cross cell membranes. KS119OH is then used in all subsequent in vitro studies shown in this section.
(§3) Like KS119, cytochrome P-450 reductase can activate KS1190H under hypoxic conditions.

[2] = Toxicity of treatment in tumor-bearing mice (body weight, blood cell count, appearance); format: in vivo; details: three tumor models in mice, edema observed
Procedure: (§4) The anti-tumor effects of aforementioned prodrugs are evaluated in both solid and liquid tumor models, including the B16-F10 murine melanoma, HTB177 human lung carcinoma models, DLD1 human colon carcinoma, EMT-6 murine mammary gland carcinoma, L1210 murine leukemia, lymphoma, prostate cancer, pancreatic cancer, and head-and-neck cancer. The prodrugs are given intravenously, orally, or intraperitoneally at doses from 10 mg/kg to 2000 mg/kg; they are give at different dosing schedules such as 4 times daily, once daily, or once every several days for up to 60 doses. Testing tumor cells were implanted subcutaneously into mice, which were randomized into groups immediately after tumor cell implantation (Day 0). Mice were injected intraperitoneally (ip) with either a bolus injection of 0.1 mL PBS or drug. The treatment was carried out in a designed dosing schedule. Tumor measurement in three dimensions was determined once a week with the formula L×H×W/2, where L, H, and W represent length, height, and width, respectively. The toxicity of these drugs in mice was mild as determined by body weight loss and animal appearance.
Efficacies of KS119W and KS119 were compared with equivalence molar doses in EMT-6 tumor and H460 tumor models. KS119W was formulated with 0.25M sodium bicarbonate solution. The treatment was started when tumors researched 150 to 200 mm^3, and lasted up to 2 weeks. KS119 at doses of 80 and 100 mg/kg and KS119W at doses of 97.6 and 121.3 mg/kg were daily administrated into mice via ip injection. […] The toxicity of KS119 and KS119W were dose-dependent. To assess the toxicity of treatment, body weight and peripheral blood cell count were monitored after treatment.
Combined therapy of KS119W with cytoxan (CTX) was evaluated by using KS119W at dose below the MTD in combination with nontoxic dose of CTX against EMT-6 murine mammary carcinoma and H460 human lung carcinoma in CD-1 nude mice. The tumors were allowed to grow to a size of approximately 200 mm^3. In H460 tumor model, the animals received either with 4 doses 180 mg/kg and 1 dose 240 mg/kg of […] or CTX at dose of 100 mg/kg per dose per animal, ip injecting the drugs on 15, 22, 27, 34 and 43 days after the tumor implantation. In the combination studies, CTX was given two hours after dosing KS119W. […] The inhibition of combination therapy was statistically significant against all control groups with p values of 0.003, 0.015 and 0.038, respectively. Additive toxicity at the doses used for combination was manageable; while the 180 mg/kg qw ×4 doses of KS119W alone caused a maximum net body weight loss of 4.5%, the same dose in combination with 4 doses of CTX at 100 mg/kg per week caused 8.6% weight loss but no death. A similar degree of growth inhibition was also observed with EMT-6 tumor model. […]

[3] = system: EMT-6 murine mammary carcinoma; format: in vivo, mice; details: EMT6/BLAB-c Mice; dose VNP40541 85-115 mpk, VNP40551 55-85 mpk
Procedure: as §4, with “respectively.” for “respectively. The toxicity of these drugs in mice was mild as determined by body weight loss and animal appearance.”
(§5) Efficacy of KS119 was studied in murine tumor model and human xenograft models. EMT-6 murine mammary carcinoma cells (3×10^5 cells/mouse) were implanted subcutaneously into Balb/c mice. H460 human lung carcinoma cells, HT29 human colon carcinoma cells and SHP77 human lung carcinoma cells were established as solid xenografts in nu/nu CD-1 mice and Scid/Beige mice with 7×10^7 cells/mouse, respectively. After implantation, tumors were allowed to grow to a size of 150 to 200 mm^3 before starting treatment with KS119. KS119 was formulated in a solvent containing polyethylene glycol 300 (PEG), ethyl alcohol, citric acid, and ascorbic acid.
(§6) Efficacies of KS119W and KS119 were compared with equivalence molar doses in EMT-6 tumor and H460 tumor models. KS119W was formulated with 0.25M sodium bicarbonate solution. The treatment was started when tumors researched 150 to 200 mm^3, and lasted up to 2 weeks. KS119 at doses of 80 and 100 mg/kg and KS119W at doses of 97.6 and 121.3 mg/kg were daily administrated into mice via ip injection. […] To assess the toxicity of treatment, body weight and peripheral blood cell count were monitored after treatment.
(§7) Combined therapy of KS119W with cytoxan (CTX) was evaluated by using KS119W at dose below the MTD in combination with nontoxic dose of CTX against EMT-6 murine mammary carcinoma and H460 human lung carcinoma in CD-1 nude mice. The tumors were allowed to grow to a size of approximately 200 mm^3. In H460 tumor model, the animals received either with 4 doses 180 mg/kg and 1 dose 240 mg/kg of KS119 or CTX at dose of 100 mg/kg per dose per animal, ip injecting the drugs on 15, 22, 27, 34 and 43 days after the tumor implantation. In the combination studies, CTX was given two hours after dosing KS119W.

[4] = system: H460 human lung carcinoma; format: in vivo, mice; details: H460/Nude Mice; dose VNP40541 80-140 mpk, VNP40551 40-80 mpk
Procedure: as §4, with “respectively.” for “respectively. The toxicity of these drugs in mice was mild as determined by body weight loss and animal appearance.”
as §5, §6, §7

[5] = system: CHO-SCS-II (non-transfected parental line); test: Aerobic/hypoxic cell survival, parental CHO cells; format: cell-based; details: drug 10 μM
Procedure: as §1, §2, §3

In the case of `C[C@@H](OC(=O)N(N(CCCl)S(C)(=O)=O)S(C)(=O)=O)c1ccc([N+](=O)[O-])c(OP(=O)(O)O)c1` [VNP40541], the “Surviving fraction at 0.1% oxygen” value ([1]; 0.1% oxygen) was 0.001368, the “Surviving fraction in air” value ([1]; air) was 0.9277 and the “toxicity compared between the enantiomers” value [2] was “lower toxicity, particularly having less edema observed”. For the same compound, the “Inhibition (%)” value [3] was 58-69%, the “Inhibition (%)” value [4] was 52-80% and the “Surviving fraction at 0.1% oxygen” value ([5]; 0.1% oxygen) was 0.04737. For the same compound, the “Surviving fraction in air” value ([5]; air) was 1.086.
